Test results as given in US11913031B2, “Method to reproduce circadian rhythms on a microfluidic chip” (Yissum Research Development Company of the Hebrew …, priority 2017, dated 2024).

How the values were obtained:
E6/E7 hepatocytes = assay: Conditional proliferation and EMT of E6/E7 human hepatocytes
human hepatocytes = assay: Lipid accumulation in human hepatocytes; format: cell-based
Protocol: The present inventor uses IR-spectroscopy to track this metabolic signature in real time. Wild type and CRY1/2 knockout hepatocytes are perfused with (1) all hormones and factors (FIGS. 17A-B), or with time-average concentrations of (2) melatonin, (3) cortisol, (4) T3, (5) growth hormone, and (6) average temperature. Signature is analysed by IR-spectroscopy every 30 min for 24 hours. IR-spectra is critically compared to intracellular metabolites quantified by LC-MS/MS, as well as specific quantification of triglycerides and bile acids using commercially available kits (FIGS. 16A-F). […] Mechanism is evaluated by systematically perturbing regulators whose activity changed prior to steatosis.

liver = conditions: Table 4 compound list, toxicological end-point; cited from earlier work
E6/E7low 653 hepatocytes = assay: Circadian gene expression (RNA sequencing, JTK_CYCLE) after dexamethasone entrainment, line 653; format: cell-based, human; conditions: 100 μM (day medium), 24±4 hours period, adjusted p-values less than 0.005
Protocol: (§1) E6/E7^low Upcyte™ hepatocytes line 422, from a donor, and line 653, from an old donor, were seeded in OSM-free differentiation media as previously described (Levy et al. Nature Biotechnology 2015). Following 5 days of differentiation, cells were synchronized in corticosteroid-free culture medium for 24 hours, followed by high 100 μM Dexamethasone dose (day medium), entraining a circadian cycle. Triplicate cell-lysate and media samples were collected every 4 hours in the following 2 days. RNA was extracted from lysate samples, using NucleoSpin® RNA (Qiagen, Valencia, Calif.) according to manufacturer's direction. RNA were further reverse-transcribed to increase stability of the molecules and tagmented with in-house produced primers containing unique-per-molecule tags along with unique-per-sample tag, using an in-house developed TN5 enzyme. […] Library construction was conducted using Illumina TruSeq RNA Library Prep V2 Kit (Illumina, San Diego, Calif.) according to manufacturer's protocol and sequenced on Illumina NextSeq500 with single-end, 86 bp reads using the High Output V2 Kit. Sequencing reads were filtered to unique reads only and mapped to the UCSC human transcriptome (genome build hg38) using Bowtie 2. Expression levels of all genes were quantified using bedtools. […]

E6/E7low 422 hepatocytes = assay: Circadian gene expression (RNA sequencing, JTK_CYCLE) after dexamethasone entrainment, line 422; format: cell-based, human; conditions: 100 μM (day medium), 24±4 hours period, adjusted p-values less than 0.005
Protocol: as §1

HepG2/C3A cells = format: cell-based
Source text: FIGS. 11A-E—FIG. 11A—System schematic. FIG. 11B—Oxygen-quenched decay causes phase shift between the intensity-modulated excitation and emission light. Two-superimposed frequencies were used to screen out background interference. FIG. 11C—Fluorescence image of HepG2/C3A cells and sensor particles after immobilization in a collagen matrix.
Real-time focus independent measurement of oxygen uptake in microfluidic bioreactor: Oxygen uptake is a critical measurement of mitochondrial function and metabolic activity^35, 36. However, electrochemical electrodes require frequent re-calibration, while optical sensors are affected by small changes in focus, cell migration and stage movement, making them unreliable for real time measurements of oxygen uptake. Therefore, the present inventor designed an optical system in which organoids are embedded with nanoprobes containing RuP dye and excited at 532 nm (FIGS. 11A-E). Oxygen is a quencher of RuP phosphorescence, leading to a decrease in decay time. Importantly, decay time is not sensitive to changes in probe concentration or excitation intensity (i.e. cell migration, mechanical movement). To measure in real-time, the present inventor used a novel two-frequency sinusoidal intensity-modulated light, allowing us to filter background interference while measuring phase shift in the emitted light.

HeLa cells = assay: Acetaminophen loss of mitochondrial respiration repeated in HeLa cells; format: cell-based

N#CC(=C(/N)Sc1ccccc1N)/C(C#N)=C(\N)Sc1ccccc1N [U0126]
Epithelial-to-mesenchymal transition (EMT) (E6/E7 hepatocytes): blocked
epithelial morphology and cell polarization (E6/E7 hepatocytes): stabilizing epithelial morphology and cell polarization

COc1ccc2[nH]cc(CCNC(C)=O)c2c1 [melatonin, Melatonin]
lipid accumulation (human hepatocytes): induce lipid accumulation

CC(=O)Oc1ccccc1C(=O)O [Aspirin]
Toxicity (liver): Steatosis

C[C@@H]1C[C@H]2[C@@H]3CCC4=CC(=O)C=C[C@]4(C)[C@@]3(F)[C@@H](O)C[C@]2(C)[C@@]1(O)C(=O)CO [Dexamethasone, 9α-fluoro-11β,17α,21-trihydroxy-16α-methylpregna-1,4-diene-3,20-dione]
genes with circadian expression pattern (E6/E7low 653 hepatocytes): 41 genes
genes with circadian expression pattern (E6/E7low 422 hepatocytes): 267 genes

CN(C)CCCN1c2ccccc2Sc2ccc(Cl)cc21 [Chlorpromazine]
Toxicity (liver): Cholestasis

Cc1c(C)c2c(c(C)c1O)CCC(C)(COc1ccc(CC3SC(=O)NC3=O)cc1)O2 (centres unmarked) [Troglitazone]
Toxicity (liver): Cholestasis

CC(=O)Nc1ccc(O)cc1 [Acetaminophen]
Toxicity (liver): Apoptosis
effect on oxygen uptake over time (HepG2/C3A cells): immediate, reversible, dose-dependent loss of oxygen uptake followed by a slow, irreversible, dose-independent death
time at which immediate dose-dependent loss of oxygen uptake concludes (HepG2/C3A cells; human): 60 min
time to total cell death (slow dose-independent loss of oxygen uptake) (HepG2/C3A cells; human): 3 to 5 days
transient loss of mitochondrial respiration in cells that lack CYP2E1 and 3A4 (HeLa cells): repeated in HeLa cells

B1: Oncostatin m (protein, UniProt P13725 26-221, looked up)
Oncostatin-M: AAIGSCSKEYRVLLGQLQKQTDLMQDTSRLLDPYIRIQGLDVPKLREHCRERPGAFPSEETLRGLGRRGFLQTLNATLGCVLHRLADLEQRLPKAQDLERSGLNIEDLEKLQMARPNILGLRNNIYCMAQLLDNSDTAEPTKAGRGASQPPTPTPASDAFQRKLEGCRFLHGYHRFMHSVGRVFSKWGESPNRSRR
doubling time of Jak-STAT3 dependent proliferation (E6/E7 hepatocytes; OSM stimulation): 40 h
